Among the data in PubChem BioAssay AID1944 (The Scripps Research Institute Molecular Screening Center, 2009) are IC50 values, retold here.

Active and inactive are the calls of the source. The rule behind the calls is not given here.

For this experiment, the target named is Replicase polyprotein 1ab (Severe acute respiratory syndrome coronavirus) (UniProt P0C6X7). Nature of the experiment: papain-like protease inhibition, dose response, biochemical, luminescence, counter-screen for SARS-CoV 3CLpro inhibitor project (AID 1944). Particulars: SARS-CoV PLpro enzymatic assay. On the technique in general: Counterscreens check selectivity or assay interference.
Usually IC50 stands for the concentration at which inhibition is half-maximal. Take `CC(C)C12CN(C(=O)c3ccccc3[N+](=O)[O-])CC(C(C)C)(CN(C(=O)c3ccccc3[N+](=O)[O-])C1)C2=O`: the IC50 was > 59.6 µM (inactive). In the case of `Cc1ccc(C(=O)Oc2ccc3c(c2)ncn3C)cc1` it was 0.577 µM. Take `COc1ccc(C(C(=O)NCC2CCCO2)N(C(=O)Cn2nnc3ccccc32)c2ccc(NC(C)=O)cc2)cc1` (stereo unspecified): the IC50 was > 59.6 µM (inactive). As to `CC(C)c1ccc(N(C(=O)c2ccco2)C(C(=O)NC2CCCC2)c2cccnc2)cc1` (stereo unspecified), the IC50 is > 59.6 µM (inactive). For `O=C(NCc1ccco1)C(c1ccco1)N(C(=O)Cn1nnc2ccccc21)c1ccc2c(c1)CCC2` (stereo unspecified) the value was > 59.6 µM (inactive); for `Cc1ccc(/C=C/C(=O)c2cc(Br)ccc2OC(=O)c2ccco2)cc1`, > 59.6 µM (inactive). For `O=C(OCC(=O)N1c2ccccc2Sc2ccccc21)c1cccnc1` the value was > 59.6 µM (inactive); for `O=C(Nc1ccccc1)NN(C(=O)CCl)c1ccccc1`, > 59.6 µM (inactive).

Consider `CCc1nc(N2CCN(C(=O)CCl)CC2)c2c3c(sc2n1)CC(C)CC3` (stereo unspecified), for which the IC50 was > 59.6 µM (inactive). Take `O=C1NC(=O)N(c2ccccc2F)C(=O)/C1=C/c1cn(CC(=O)N2CCOCC2)c2ccccc12`: the IC50 was > 59.6 µM (inactive). For `COc1cc(C2CC(c3cccs3)=NN2C(=O)CCl)ccc1OC(F)F` (stereo unspecified) the value was > 59.6 µM (inactive). Take `C[C@@]12C(=O)N(c3cccc(Br)c3)C(=O)N1[C@H](c1ccc(Cl)cc1)[C@@H]1C(=O)N(C3CCCCC3)C(=O)[C@@H]12`: the IC50 was > 59.6 µM (inactive). Take `O=C1C(=O)N(C/C=C/c2ccccc2)c2ccccc21`: the IC50 was > 59.6 µM (inactive). Take `O=C(N/N=C\c1c(O)ccc2ccccc12)c1cncc(Br)c1`: the IC50 was 8.21 µM. For `O=C(/C=C/c1cccs1)Nc1scc(-c2ccccc2)c1C(=O)O` the value was 0.0455 µM; for `NC(=O)CCn1c(C(=O)c2cc(Cl)c(N)c(Cl)c2)c2ccccc2[n+]1[O-]`, > 59.6 µM (inactive); for `O=C(O)c1[nH]c2ccccc2c1C(c1cc(Br)ccc1O)c1c(C(=O)O)[nH]c2ccccc12`, 9.17 µM. In the case of `Cc1cc(C(=O)CCl)c(C)n1-c1cccc([N+](=O)[O-])c1` it was > 59.6 µM (inactive); in that of `CC(C)C[C@H](NC(=O)c1nc[nH]c1C(=O)NCc1ccc(CNC(=O)OC(C)(C)C)cc1)C(=O)OC(C)(C)C`, > 59.6 µM (inactive). For `COc1ccccc1/C=C/C(=O)c1cc(Br)ccc1OC(=O)c1ccco1` the value was “inactive”. Take `O=C(/C=C/c1ccc(Cl)c([N+](=O)[O-])c1)NCc1cccnc1`: the IC50 was > 59.6 µM (inactive). As for `NC(=O)CCn1c(C(=O)c2ccc(Cl)cc2)c2ccccc2[n+]1[O-]`, the IC50 was > 59.6 µM (inactive). For `Cc1cc(NC(=O)COC(=O)C(Nc2ccc(C(F)(F)F)cc2Cl)C(C)C)no1` (stereo unspecified) the value was > 59.6 µM (inactive). For `CC(=O)n1cc(N(C(=O)CCl)c2ccc([N+](=O)[O-])cc2)c2ccccc21` the value was > 59.6 µM (inactive). For `O=C1C(=O)N(CC2COc3ccccc3O2)c2ccccc21` (stereo unspecified) the value was > 59.6 µM (inactive); for `O=C(Cc1ccc(Cl)c(Cl)c1)Nc1cccnc1`, “inactive”; for `CCc1cc(=O)oc2cc(OC(=O)c3ccco3)ccc12`, > 59.6 µM (inactive). `COc1ccc2c(c1)C(=O)C(=O)N2CC1COc2ccccc2O1` (stereo unspecified): the IC50 is > 59.6 µM (inactive). In the case of `O=C(Nc1ccc(OCC(F)(F)C(F)F)c(C(F)(F)F)c1)c1ccccc1O` it was 0.596 µM; in that of `Cc1cc(=O)oc2cc(NC(=O)Cc3ccccc3[N+](=O)[O-])ccc12`, > 59.6 µM (inactive); in that of `O=C(c1cc(=O)[nH]c2ccccc12)N1CCN(c2cccc(C(F)(F)F)c2)CC1`, > 59.6 µM (inactive). In the case of `Cc1nnc(SC(=O)N2c3ccccc3Sc3ccccc32)s1`, the IC50 is > 59.6 µM (inactive). For `Nc1ncc(Br)cc1S(=O)(=O)Nc1cc(C(F)(F)F)cc(C(F)(F)F)c1` the value was > 59.6 µM (inactive); for `CCOc1ccc2c(c1)C(=O)C(=O)N2CC1COc2ccccc2O1` (stereo unspecified), > 59.6 µM (inactive); for `O=C(Oc1ccc(Br)cc1C(=O)/C=C/c1ccccc1F)c1ccco1`, > 59.6 µM (inactive). In the case of `O=C(CSc1ccccn1)Nc1nonc1[N+](=O)[O-]`, the IC50 is > 59.6 µM (inactive). For `Cc1ccc(C(=O)O)cc1NC(=S)NC(=O)c1ccc(COc2ccccc2)cc1` the value was 2.48 µM; for `O=C(O)c1ccc2ncsc2c1`, 7.39 µM; for `COc1cccc(C(C(=O)NCc2ccco2)N(Cc2ccco2)C(=O)Cn2nnc3ccccc32)c1` (stereo unspecified), > 59.6 µM (inactive). As for `O=C(Oc1cccnc1)c1ccc(Cl)cc1`, the IC50 was 7.99 µM. For `COc1cccc(C(C(=O)NCC2CCCO2)N(C(=O)Cn2nnc3ccccc32)c2ccc(NC(C)=O)cc2)c1` (stereo unspecified) the value was > 59.6 µM (inactive). In the case of `COc1ccc2cc(C3(C)NC(=O)N(CC(=O)NCc4ccco4)C3=O)ccc2c1` (stereo unspecified) it was > 59.6 µM (inactive).

For the molecule `COc1cc(/C=N\NC(=O)Cn2nnc3ccccc32)cc(OC)c1OC`, the IC50 was > 59.6 µM (inactive). For `CC1(C)C2CC=C(/C=N/NC(=S)Nc3cccnc3)C1C2` (stereo unspecified) the value was > 59.6 µM (inactive); for `Cc1ccc(C(=O)c2c3ccc(C(F)(F)F)cc3[n+]([O-])n2CCC(N)=O)cc1`, > 59.6 µM (inactive).

For the molecule `CN(C)S(=O)(=O)c1cccc(NC(=O)CSc2cccc3cccnc23)c1`, the IC50 was > 59.6 µM (inactive).

`O=C(c1cc(=O)[nH]c2ccccc12)N1CCN(c2ccccc2)CC1`: the IC50 is > 59.6 µM (inactive). For `Cc1ccc(-c2cc(NC(=O)c3ccccc3[N+](=O)[O-])n[nH]2)cc1`, the IC50 entry was “inactive”.

For the molecule `Cn1nc(-c2ccc(Cl)cc2)nc2c(=O)n(C)c(=O)nc1-2`, the IC50 is 0.111 µM.

On to `COc1ccccc1OCCNC(=O)c1cc(=O)[nH]c2ccccc12`, for which the IC50 was > 59.6 µM (inactive). For `Cc1cccc(N2CCN(C(=O)c3cc(=O)[nH]c4ccccc34)CC2)c1C`, the IC50 is > 59.6 µM (inactive). For `COc1ccc(C2C(O)C(c3c[nH]c4ccccc34)=NN2C(=O)CCl)cc1` (stereo unspecified) the value was > 59.6 µM (inactive). Consider `CCc1cccc(CC)c1N(COC)C(=O)Cn1nnc2ccccc21`, for which the IC50 is > 59.6 µM (inactive). For `CC1CCC2C(=O)N(c3cc(Cl)ccc3OC(=O)c3ccco3)C(=O)C2C1` (stereo unspecified) the value was > 59.6 µM (inactive).

On to `COc1cccc(/C=N/NC(=S)Nc2cccnc2)c1`, for which the IC50 entry was “inactive”. `O=C(/C=C/c1ccccc1Cl)Nc1cccnc1`: the IC50 was 0.0388 µM. In the case of `CC(C)c1ccc(N(C(=O)c2csnn2)C(C(=O)NC2CCCC2)c2cccnc2)cc1` (stereo unspecified) it was > 59.6 µM (inactive); in that of `O=C(CCl)N(CCc1ccccc1)CCc1ccccc1`, “inactive”. For `CC(=O)NC1C(=O)N(CCN2CCOCC2)c2ccc(F)cc21` (stereo unspecified) the value was > 59.6 µM (inactive); for `O=c1[nH]c(=O)n(-c2ccccc2F)c(O)c1/C=C1\C=Nc2ccccc21`, > 59.6 µM (inactive); for `COc1cc2c(cc1OC)C(c1cc(Br)ccc1F)N(C(=O)CCl)CC2` (stereo unspecified), > 59.6 µM (inactive). As for `CCC(C)c1ccc(N(C(=O)c2ccco2)C(C(=O)NC2CCCC2)c2cccnc2)cc1` (stereo unspecified), the IC50 entry was “inactive”. On to `Cc1sc(NC(=O)CCl)c(C(=O)c2ccccc2)c1C`, for which the IC50 is > 59.6 µM (inactive).

`COC(=O)c1ccc(OC(=O)CN2C(=O)c3ccccc3C2=O)cc1`: the IC50 result was “inactive”.

In the case of `COc1ccc(N(Cc2cc(=O)[nH]c3ccccc23)C(=O)CCl)cc1`, the IC50 was > 59.6 µM (inactive). Take `COc1ccc(N(C(=O)Cn2nnc3ccccc32)C2(C(=O)NC3CCCC3)CCCCC2)cc1`: the IC50 was > 59.6 µM (inactive). In the case of `COc1ccc(C2CC(c3cccs3)=NN2C(=O)CCl)cc1OC` (stereo unspecified) it was > 59.6 µM (inactive).

For the molecule `O=Cc1cn(Cc2ccccc2)nc1-c1cccnc1`, the IC50 was > 59.6 µM (inactive). On to `O=C(Cn1nnc2ccccc21)c1ccc(Cl)cc1`, for which the IC50 is 3.97 µM.

With `Cc1ccc(C2=NN(C(=O)CCl)C(c3ccco3)C2)o1` (stereo unspecified), the IC50 was > 59.6 µM (inactive). For `Cc1cc(C)c(N(C(=O)Cn2nnc3ccccc32)C(C(=O)NC(C)(C)C)c2ccsc2)c(C)c1` (stereo unspecified) the value was > 59.6 µM (inactive). In the case of `Cc1ccc(C2CC(c3cccs3)=NN2C(=O)CCl)cc1` (stereo unspecified) it was “inactive”; in that of `Cc1ccc(C(=O)c2c3ccccc3[n+]([O-])n2CCC(N)=O)cc1`, 8.04 µM. In the case of `CC(=O)c1c(OC(=O)c2ccco2)c2ccccc2n1C` it was > 59.6 µM (inactive); in that of `CCN(CC)C(=O)Cn1cc(/C=C2\C(=O)NC(=O)N(c3ccccc3F)C2=O)c2ccccc21`, > 59.6 µM (inactive). As for `COc1ccc(C(=O)n2c(SC)nc3cc4c(cc32)OCCO4)cc1`, the IC50 was 2.46 µM. Take `CCc1ccc2c(c1)C(NC(C)=O)C(=O)N2CCN1CCOCC1` (stereo unspecified): the IC50 was > 59.6 µM (inactive).

Consider `CC(=O)NC1C(=O)N(CCN2CCOCC2)c2ccc(Br)cc21` (stereo unspecified), for which the IC50 was > 59.6 µM (inactive). In the case of `O=C1C(=O)N(CCCc2ccccc2)c2ccccc21` it was “inactive”. In the case of `CCCCOc1ccc(C(=O)Oc2cccnc2)cc1` it was 1.61 µM; in that of `O=C(/C=C/c1c(F)cccc1Cl)Nc1cccnc1`, 0.0628 µM; in that of `CC(=O)Nc1ccc(N(C(=O)Cn2nnc3ccccc32)C(C(=O)NC2CCCC2)c2ccc(O)c(O)c2)cc1` (stereo unspecified), > 59.6 µM (inactive). For `Cc1cc(NC(=O)COn2nnc3ccc(S(C)(=O)=O)cc32)ccc1Br` the value was > 59.6 µM (inactive). For `O=C(Cn1nnc2ccccc21)c1ccc(Br)cc1`, the IC50 is 2.3 µM.

Take `COc1cccc(C(C(=O)Nc2ccc(F)cc2)N(C(=O)Cn2nnc3ccccc32)C2CC2)c1` (stereo unspecified): the IC50 was > 59.6 µM (inactive). For `Cc1cc(C)n(C(=O)c2ccc(C)c(Br)c2)n1` the value was “inactive”.
